Results taken from the OligoGym collection.
HELM strings list units from the 5' end as sugar, base in round brackets, then linkage (d deoxyribose, r ribose, m 2'-O-methyl, p phosphodiester). Strings are as the collection lists them; they lack the last nucleoside at the 3' end of the tested compound. [moe] = 2'-O-(2-methoxyethyl) (MOE); [sp] = phosphorothioate linkage; [m5C] = 5-methylcytosine

Biological target: LRRK2
Test: mouse, dose not given
Conditions: ASO

Substance: RNA1{[moe]([m5C])[sp].[moe](T)p.[moe](T)[sp].[moe](T)[sp].[moe]([m5C])[sp].d(A)[sp].d(T)[sp].d(A)[sp].d(G)[sp].d([m5C])[sp].d(T)[sp].d(T)[sp].d([m5C])[sp].d([m5C])[sp].d(A)[sp].[moe]([m5C])[sp].[moe]([m5C])p.[moe](A)[sp].[moe]([m5C])}$$$$ (last 3' nucleoside missing)
- 3 h FOB score: 3 score 0-7

Substance: RNA1{[moe](G)[sp].[moe](T)p.[moe](T)[sp].[moe](T)[sp].[moe]([m5C])[sp].d(A)[sp].d(T)[sp].d(T)[sp].d([m5C])[sp].d(G)[sp].d(G)[sp].d(T)[sp].d(T)[sp].d(A)[sp].d(T)[sp].[moe](A)[sp].[moe](A)p.[moe](G)[sp].[moe](G)}$$$$ (last 3' nucleoside missing)
- 3 h FOB score: 7 score 0-7

Substance: RNA1{[moe](T)[sp].[moe](T)p.[moe]([m5C])[sp].[moe](A)[sp].[moe](T)[sp].d(T)[sp].d([m5C])[sp].d(G)[sp].d(G)[sp].d(T)[sp].d(T)[sp].d(A)[sp].d(T)[sp].d(A)[sp].d(A)[sp].[moe](G)[sp].[moe](G)p.[moe]([m5C])[sp].[moe](A)}$$$$ (last 3' nucleoside missing)
- 3 h FOB score: 6 score 0-7

Substance: RNA1{[moe](G)[sp].[moe](T)p.[moe](T)p.[moe](T)p.[moe]([m5C])[sp].d(A)[sp].d(T)[sp].d(T)[sp].d([m5C])[sp].d(G)[sp].d(G)[sp].d(T)[sp].d(T)[sp].d(A)[sp].d(T)[sp].[moe](A)p.[moe](A)p.[moe](G)[sp].[moe](G)}$$$$ (last 3' nucleoside missing)
- 3 h FOB score: 7 score 0-7

Substance: RNA1{[moe](G)[sp].[moe]([m5C])p.[moe]([m5C])[sp].[moe](A)[sp].[moe]([m5C])[sp].d(T)[sp].d([m5C])[sp].d(A)[sp].d(T)[sp].d(G)[sp].d(A)[sp].d(G)[sp].d(G)[sp].d(A)[sp].d([m5C])[sp].[moe](T)[sp].[moe](T)p.[moe]([m5C])[sp].[moe]([m5C])}$$$$ (last 3' nucleoside missing)
- 3 h FOB score: 6 score 0-7

Substance: RNA1{[moe](A)[sp].[moe](G)p.[moe](T)[sp].[moe](G)[sp].[moe]([m5C])[sp].d(A)[sp].d(T)[sp].d(G)[sp].d(G)[sp].d([m5C])[sp].d(A)[sp].d(T)[sp].d([m5C])[sp].d(A)[sp].d(A)[sp].[moe](A)[sp].[moe](A)p.[moe](A)[sp].[moe](T)}$$$$ (last 3' nucleoside missing)
- 3 h FOB score: 2 score 0-7

Substance: RNA1{[moe](A)[sp].[moe]([m5C])p.[moe](G)p.[moe]([m5C])p.[moe](A)[sp].d([m5C])[sp].d(T)[sp].d(T)[sp].d(A)[sp].d(A)[sp].d([m5C])[sp].d(A)[sp].d(A)[sp].d(T)[sp].d(A)[sp].[moe](T)p.[moe]([m5C])p.[moe](A)[sp].[moe](T)}$$$$ (last 3' nucleoside missing)
- 3 h FOB score: 0 score 0-7

Substance: RNA1{[moe]([m5C])[sp].[moe](A)p.[moe](T)p.[moe](A)p.[moe](A)[sp].d(G)[sp].d(T)[sp].d(T)[sp].d(T)[sp].d([m5C])[sp].d(A)[sp].d(T)[sp].d(T)[sp].d([m5C])[sp].d(G)[sp].[moe](G)p.[moe](T)p.[moe](T)[sp].[moe](A)}$$$$ (last 3' nucleoside missing)
- 3 h FOB score: 5 score 0-7

Substance: RNA1{[moe](G)[sp].[moe]([m5C])p.[moe]([m5C])p.[moe]([m5C])p.[moe](A)[sp].d(G)[sp].d([m5C])[sp].d([m5C])[sp].d(A)[sp].d(A)[sp].d(A)[sp].d(T)[sp].d(G)[sp].d([m5C])[sp].d(T)[sp].[moe](T)p.[moe](G)p.[moe]([m5C])[sp].[moe](A)}$$$$ (last 3' nucleoside missing)
- 3 h FOB score: 0 score 0-7

Substance: RNA1{[moe]([m5C])[sp].[moe](T)p.[moe]([m5C])p.[moe](A)p.[moe](T)[sp].d(A)[sp].d(T)[sp].d([m5C])[sp].d(T)[sp].d(A)[sp].d(A)[sp].d(A)[sp].d(G)[sp].d(A)[sp].d([m5C])[sp].[moe]([m5C])p.[moe](G)p.[moe]([m5C])[sp].[moe](A)}$$$$ (last 3' nucleoside missing)
- 3 h FOB score: 1 score 0-7

Substance: RNA1{[moe](T)[sp].[moe](G)p.[moe]([m5C])[sp].[moe](T)[sp].[moe](G)[sp].d([m5C])[sp].d(T)[sp].d([m5C])[sp].d(A)[sp].d(T)[sp].d(A)[sp].d(T)[sp].d([m5C])[sp].d(T)[sp].d(A)[sp].[moe](A)[sp].[moe](A)p.[moe](G)[sp].[moe](A)}$$$$ (last 3' nucleoside missing)
- 3 h FOB score: 0 score 0-7

Substance: RNA1{[moe](A)[sp].[moe]([m5C])p.[moe](G)[sp].[moe]([m5C])[sp].[moe](A)[sp].d([m5C])[sp].d(T)[sp].d(T)[sp].d(A)[sp].d(A)[sp].d([m5C])[sp].d(A)[sp].d(A)[sp].d(T)[sp].d(A)[sp].[moe](T)[sp].[moe]([m5C])p.[moe](A)[sp].[moe](T)}$$$$ (last 3' nucleoside missing)
- 3 h FOB score: 1 score 0-7

Substance: RNA1{[moe](A)[sp].[moe](T)p.[moe](A)[sp].[moe](A)[sp].[moe](G)[sp].d(T)[sp].d(T)[sp].d(T)[sp].d([m5C])[sp].d(A)[sp].d(T)[sp].d(T)[sp].d([m5C])[sp].d(G)[sp].d(G)[sp].[moe](T)[sp].[moe](T)p.[moe](A)[sp].[moe](T)}$$$$ (last 3' nucleoside missing)
- 3 h FOB score: 4 score 0-7

Substance: RNA1{[moe](A)[sp].[moe](T)p.[moe]([m5C])[sp].[moe](A)[sp].[moe](T)[sp].d(T)[sp].d(G)[sp].d([m5C])[sp].d(T)[sp].d(G)[sp].d([m5C])[sp].d(T)[sp].d([m5C])[sp].d(A)[sp].d(T)[sp].[moe](A)[sp].[moe](T)p.[moe]([m5C])[sp].[moe](T)}$$$$ (last 3' nucleoside missing)
- 3 h FOB score: 6 score 0-7

Substance: RNA1{[moe](A)[sp].[moe](G)p.[moe](T)p.[moe](T)[sp].[moe]([m5C])[sp].d([m5C])[sp].d(T)[sp].d(T)[sp].d([m5C])[sp].d(A)[sp].d(G)[sp].d(T)[sp].d([m5C])[sp].d(T)[sp].d([m5C])[sp].[moe](A)p.[moe](A)p.[moe](G)[sp].[moe](G)}$$$$ (last 3' nucleoside missing)
- 3 h FOB score: 7 score 0-7

Substance: RNA1{[moe]([m5C])[sp].[moe]([m5C])p.[moe](A)[sp].[moe]([m5C])[sp].[moe](A)[sp].d(A)[sp].d(A)[sp].d([m5C])[sp].d(T)[sp].d([m5C])[sp].d(A)[sp].d(T)[sp].d(G)[sp].d(G)[sp].d(A)[sp].[moe]([m5C])p.[moe](T)p.[moe](T)[sp].[moe]([m5C])}$$$$ (last 3' nucleoside missing)
- 3 h FOB score: 5 score 0-7

Substance: RNA1{[moe](T)[sp].[moe](G)p.[moe](T)[sp].[moe]([m5C])[sp].[moe](A)[sp].d([m5C])[sp].d([m5C])[sp].d(T)[sp].d(T)[sp].d(T)[sp].d([m5C])[sp].d([m5C])[sp].d([m5C])[sp].d(A)[sp].d(A)[sp].[moe](T)[sp].[moe](G)p.[moe]([m5C])[sp].[moe](T)}$$$$ (last 3' nucleoside missing)
- 3 h FOB score: 5 score 0-7

Substance: RNA1{[moe]([m5C])[sp].[moe]([m5C])p.[moe](A)p.[moe](T)p.[moe](A)[sp].d(T)[sp].d(T)[sp].d(T)[sp].d(A)[sp].d(G)[sp].d([m5C])[sp].d(T)[sp].d(T)[sp].d(A)[sp].d(T)[sp].[moe](G)p.[moe](A)p.[moe](T)[sp].[moe](G)}$$$$ (last 3' nucleoside missing)
- 3 h FOB score: 7 score 0-7

Substance: RNA1{[moe](G)[sp].[moe](G)p.[moe](A)p.[moe]([m5C])p.[moe](T)[sp].d(T)[sp].d([m5C])[sp].d([m5C])[sp].d(A)[sp].d([m5C])[sp].d(A)[sp].d(T)[sp].d(T)[sp].d(A)[sp].d(T)[sp].[moe](T)p.[moe](G)p.[moe]([m5C])[sp].[moe](A)}$$$$ (last 3' nucleoside missing)
- 3 h FOB score: 0 score 0-7

Substance: RNA1{[moe]([m5C])[sp].[moe]([m5C])p.[moe](A)p.[moe]([m5C])p.[moe](A)[sp].d(A)[sp].d(A)[sp].d([m5C])[sp].d(T)[sp].d([m5C])[sp].d(A)[sp].d(T)[sp].d(G)[sp].d(G)[sp].d(A)[sp].[moe]([m5C])p.[moe](T)p.[moe](T)[sp].[moe]([m5C])}$$$$ (last 3' nucleoside missing)
- 3 h FOB score: 6 score 0-7

Substance: RNA1{[moe](A)[sp].[moe](A)p.[moe](T)[sp].[moe](G)[sp].[moe](A)[sp].d(G)[sp].d(T)[sp].d(G)[sp].d([m5C])[sp].d(A)[sp].d(T)[sp].d(G)[sp].d(G)[sp].d([m5C])[sp].d(A)[sp].[moe](T)[sp].[moe]([m5C])p.[moe](A)[sp].[moe](A)}$$$$ (last 3' nucleoside missing)
- 3 h FOB score: 3 score 0-7

Substance: RNA1{[moe]([m5C])[sp].[moe](T)p.[moe](T)p.[moe](T)p.[moe]([m5C])[sp].d(A)[sp].d([m5C])[sp].d(T)[sp].d([m5C])[sp].d(A)[sp].d(T)[sp].d(A)[sp].d(G)[sp].d(G)[sp].d(G)[sp].[moe](A)p.[moe](A)p.[moe](T)[sp].[moe](G)}$$$$ (last 3' nucleoside missing)
- 3 h FOB score: 2.5 score 0-7

Substance: RNA1{[moe](T)[sp].[moe](T)p.[moe](A)[sp].[moe](A)[sp].[moe](A)[sp].d(A)[sp].d(T)[sp].d([m5C])[sp].d(T)[sp].d(T)[sp].d([m5C])[sp].d(A)[sp].d(G)[sp].d(T)[sp].d(T)[sp].[moe]([m5C])[sp].[moe]([m5C])p.[moe](T)[sp].[moe](T)}$$$$ (last 3' nucleoside missing)
- 3 h FOB score: 0 score 0-7

Substance: RNA1{[moe](A)[sp].[moe](T)p.[moe](G)[sp].[moe]([m5C])[sp].[moe](T)[sp].d(T)[sp].d(T)[sp].d([m5C])[sp].d(A)[sp].d(T)[sp].d(A)[sp].d(G)[sp].d([m5C])[sp].d(T)[sp].d(T)[sp].[moe]([m5C])[sp].[moe]([m5C])p.[moe](A)[sp].[moe]([m5C])}$$$$ (last 3' nucleoside missing)
- 3 h FOB score: 2 score 0-7

Substance: RNA1{[moe](A)[sp].[moe](A)p.[moe](A)[sp].[moe](T)[sp].[moe](G)[sp].d(A)[sp].d(G)[sp].d(T)[sp].d(G)[sp].d([m5C])[sp].d(A)[sp].d(T)[sp].d(G)[sp].d(G)[sp].d([m5C])[sp].[moe](A)[sp].[moe](T)p.[moe]([m5C])[sp].[moe](A)}$$$$ (last 3' nucleoside missing)
- 3 h FOB score: 4 score 0-7
